Experimental data published in patent US10398676B2, “Use of alpha-hydroxy carbonyl compounds as reducing agents” (Morvus Technology Ltd, priority 2005, dated 2019).
Marks after values point to notes of the source that are not given here.

Key:
[1] = Reduction of NADP+ by α-hydroxycarbonyl compounds (Example 7); type: physicochemical; conditions: 1 mM test compound, 200 μM NADP+, pH 10 (1 mM NaHCO3 buffer), over 2 minutes
Method: A 10 μL aliquot of test compound (at a concentration of 100 mM in water) is added to a 200 μM NADP^+ aqueous solution (approximately 990 μL), buffered to pH 10 (1 mM NaHCO3 buffer). The final concentration of the test compound in the assay solution was 1 mM. Reduction of NADP^+ was then monitored by measuring the increase, over the course of 2 minutes, of absorption at 350 nm on a spectrophotometer. Initial rates were recorded as the change in A350 per minute.

[2] = Reduction of tretazicar by α-hydroxycarbonyl compounds, HPLC initial rate (Example 8); type: physicochemical; conditions: 10 mM test compound, 100 μM tretazicar, 0.1 M sodium bicarbonate buffer; for Initial Rate of tretazicar reduction, pH 9: pH 9, 37° C.; for Initial Rate of tretazicar reduction, pH 10: pH 10, 37° C.
Method: (§1) The assay was started by addition of 100 μL of 100 mM test compound (compound of formula I) in water to a mixture of tretazicar (100 μM) in 0.1 M sodium bicarbonate buffer, pH 9 or pH 10, to give a final volume of 1 mL. The mixture was incubated at 37° C. and aliquots (10 μL) were taken every 6 min and assayed immediately by HPLC [Partisil 10 SCX (4.2×150 mm) (Whatman, Maidstone, Kent, U.K.] eluted isocratically with 0.13 M sodium phosphate (pH 5) at 1.5 ml/min). The concentration of tretazicar was determined in each sample by reference of the corresponding peak area with an external standard, quantified by absorbance at 325 nm. Initial rates were calculated by curve fitting (FigP, Biosoft, Cambridge, U.K.). Reduction products were identified by retention time relative to an authentic standard.

[3] = DHA reduction of prodrugs and nitro compounds, HPLC initial rate (Examples 5 and 6); type: physicochemical; conditions: 100 μM compound, 10 mM DHA, 37° C.
Method: The assay mixture contained the compound under test (100 μM) and DHA (10 mM) in a final reaction volume of 1 mL of sodium phosphate buffer (of the required pH). The reaction was started by addition of DHA and the mixture is incubated at 37° C.

[4] = system: Chinese Hamster V79 cells; assay: Survival of V79 cells, colony forming ability (FIG. 7); type: cell-based; conditions: 10 or 100 μM E09 with 10 mM DHA, 2 hours, pH 7.5, 37° C.
Method: The survival of V79 cells was determined using the following method: • Volumes (1 mL, 2×10^5 cells/mL) of V79 cells in 10 mM phosphate buffer (pH 7.5) containing 140 mM NaCl were incubated at 37° C. and then reagents (as indicated above, at the concentrations stipulated) were added (except for the control experiment). After a 2 hour incubation, the cells were harvested by centrifugation, diluted out serially (4×10-fold) and the cells plated into growth medium and assayed for their colony forming ability after growth for 1 week in a humidified 5% CO2 atmosphere.

[5] = DHA reduction of prodrugs and nitro compounds, HPLC initial rate (Examples 5 and 6); type: physicochemical; conditions: 100 μM compound, 1 mM DHA employed (instead of 10 mM DHA), 37° C.
[6] = bioactivated versus non-activated; cited from earlier work
[7] = Chemical activation of tretazicar by DHA in bicarbonate buffer (Example 1); type: physicochemical; conditions: 10 mM DHA, 100 μM tretazicar, 0.1M sodium bicarbonate buffer, 1 ml
Method: as §1, with “DHA” for “test compound (compound of formula I)”, “0.1M” for “0.1 M”, “pH10,” for “pH 10,”, “ml.” for “mL.”, “(42×150” for “(4.2×150”, “mL/min).” for “ml/min).”

DNA = conditions: cited from earlier work
[8] = humans, phase I; cited from earlier work

Molecule	Rate of NADP+ reduction [1] [change in A350 per minute]	Initial Rate of tretazicar reduction, pH 9 [2] [nmoles/min/mL]	Initial Rate of tretazicar reduction, pH 10 [2] [nmoles/min/mL]	Initial Rate, pH 8 [3] [nmoles/min/mL]	Initial Rate, pH 9 [3]	Initial Rate, pH 10 [3] [nmoles/min/mL]	INITIAL RATE, 0.1 M PO4, pH7.5 [3] [nmoles/min/mL]	INITIAL RATE, 0.1 M PO4, pH8 [3] [nmoles/min/mL]	other results
O=CC(O)CO (racemic) [D,L-Glyceraldehyde]	0.015	0.53	0.62						
CC(=O)C(C)O (stereo not shown) [3-hydroxy-2-butanone]		0.034	0.184						
O=C(O)c1cc([N+](=O)[O-])c(Cl)c([N+](=O)[O-])c1 [4-chloro-3,5-dinitrobenzoic acid]				0.195	1.293 nmoles/min/mL	1.727			Initial Rate, pH 10.6 [3]: 2.442 nmoles/min/mL
O=[N+]([O-])c1ccc(CO)cc1 [4-nitrobenzyl alcohol]				< 0.01	< 0.01 nmoles/min/mL	0.105			Initial Rate, pH 10.6 [3]: 0.087 nmoles/min/mL
Cc1cc(Cl)c([N+](=O)[O-])cc1[N+](=O)[O-] [5-chloro-2,4-dinitrotoluene]				0.132	0.499 nmoles/min/mL	0.690			Initial Rate, pH 10.6 [3]: 1.703 nmoles/min/mL
O=CC(O)C(O)CO (stereo not drawn) [D(−)-Erthrose]	0.004	< 0.01	0.28						
O=C(CO)CO [Dihydroxyacetone (dimer), 1,3-dihydroxy-2-propanone]	0.063	0.92	0.69						
Cn1c(/C=C/CO)c(CO)c2c1C(=O)C=C(N1CC1)C2=O [E09, 3-[5-aziridinyl-4,7-dioxo-3-hydroxymethyl-1-methyl-1H-indol-2-yl]-prop-β-ene-α-ol]							0.272	0.605	cytotoxic effect (percentage survival of V79 cells) on addition of DHA [4]: greatly enhanced
O=C(CO)[C@H](O)[C@@H](O)CO [L-Xylulose]	0.003	< 0.01	0.28						
Cc1ncc([N+](=O)[O-])n1CCO [Metronidazole, 2-methyl-5-nitro-1H-imidazole-1-ethanol]				0.369	0.890 nmoles/min/mL	1.239	0.131	0.369	Initial Rate, pH 10.6 [3]: 0.807 nmoles/min/mL
COCC(O)Cn1ccnc1[N+](=O)[O-] (stereo not shown) [Misonidazole]				1.922	1.851 nmoles/min/mL	3.180	0.221	1.922	
CO[C@@]12[C@H](COC(N)=O)C3=C(C(=O)C(C)=C(N)C3=O)N1C[C@@H]1N[C@@H]12 [Mitomycin C]					Too fast to measure				INITIAL RATE, pH7.5 column, (PBS) ([3]; PBS): 1.524 (PBS) nmoles/min/mL; Initial Rate, pH 7 ([3]; pH 7): 1.019 nmoles/min/mL; INITIAL RATE, 0.1 M PO4, pH8, 1 mM DHA ([5]; pH8): 0.052^a nmoles/min/mL; Initial Rate, pH 8, 1 mM DHA ([5]; pH8): 0.052 nmoles/min/mL; Initial Rate, pH 8.5, 1 mM DHA ([5]; pH 8.5): 0.103 nmoles/min/mL
NC(=O)N/N=C/c1ccc([N+](=O)[O-])o1 [Nitrofurazone, 2-[(5-nitro-2-furanyl)methylene]hydrazinecarboxamide]				0.203	2.390 nmoles/min/mL	3.789	0.177	0.203	Initial Rate, pH 7.5 [3]: 0.177 nmoles/min/mL; Initial Rate, pH 8.5 [3]: 0.260 nmoles/min/mL
O=[N+]([O-])c1nccn1CC(O)CN1CC1 (stereo not shown) [RSU-1069/RB-1645, 1-(1-aziridinyl)-3-(2-nitro-1-imidazolyl)-2-propanol]							<0.01	2.57	
Nc1n[n+]([O-])c2ccccc2[n+]1[O-] [Tirapazamine, 3-amino-1,2,4-benzotriazine-1,4-dioxide]				0.512	3.503 nmoles/min/mL	4.209	0.523	0.512	Initial Rate, pH 7.5 [3]: 0.523 nmoles/min/mL; Initial Rate, pH 8.5 [3]: 0.639 nmoles/min/mL
NC(=O)c1cc(N2CC2)c([N+](=O)[O-])cc1[N+](=O)[O-] [Tretazicar, 5-(aziridin-1-yl)-2,4-dinitrobenzamide]				0.158	0.933 nmoles/min/mL	1.248	<0.01	0.158	Initial Rate, pH 10.6 [3]: 5.801 nmoles/min/mL; dose modification resulting from bioactivation (increase in cytotoxicity) [6]: up to 100,000 fold; rate of tretazicar reduction by DHA at pH 9 ([7]; pH 9, 37° C.): 0.92 nmol/min; rate of tretazicar reduction by DHA at pH 10 ([7]; pH 10, 37° C.): 0.69 nmol/min; increase in the amount of DNA-bound drug (DNA; Walker cells compared to cells which cannot reduce tretazicar (Friedlos et al, 1992)): 10 fold; interstrand crosslinks as share of total lesions / total DNA reactions (DNA; literature values (Friedlos et al, 1992; Knox et al, 1986)): up to 70%; MTD [8]: 37.5 mg/m^2; dose safely administered without any significant toxicity [8]: up to 24 mg/m^2
Glycolaldehyde [Glycolaldehyde dimer]	0.029	0.18	0.14						
Hydroxyacetone [Hydroxyacetone (acetol)]	0.003								
